Measurements: patent US20140315889A1, “HYDROXAMATE DERIVATIVES FOR HDAC INHIBITOR, AND THE PHARMACEUTICAL COMPOSITION COMPRISING THEREOF” (CHONG KUN DANG PHARMACEUTICAL CORP., priority 2011, published 2014)
Like-named read-outs stand apart in the source and are kept apart here.

Tests used:
Type in all cases: biochemical
HDAC9 = HDAC9 (Homo sapiens, UniProt Q9UKV0); assay: HDAC enzyme activity test, HDAC9; settings: Table 11, eleven HDAC isozymes; read-out: Inhibition ability (IC50) against HDAC9
Chain of HDAC9 (Q9UKV0 whole entry, species assumed): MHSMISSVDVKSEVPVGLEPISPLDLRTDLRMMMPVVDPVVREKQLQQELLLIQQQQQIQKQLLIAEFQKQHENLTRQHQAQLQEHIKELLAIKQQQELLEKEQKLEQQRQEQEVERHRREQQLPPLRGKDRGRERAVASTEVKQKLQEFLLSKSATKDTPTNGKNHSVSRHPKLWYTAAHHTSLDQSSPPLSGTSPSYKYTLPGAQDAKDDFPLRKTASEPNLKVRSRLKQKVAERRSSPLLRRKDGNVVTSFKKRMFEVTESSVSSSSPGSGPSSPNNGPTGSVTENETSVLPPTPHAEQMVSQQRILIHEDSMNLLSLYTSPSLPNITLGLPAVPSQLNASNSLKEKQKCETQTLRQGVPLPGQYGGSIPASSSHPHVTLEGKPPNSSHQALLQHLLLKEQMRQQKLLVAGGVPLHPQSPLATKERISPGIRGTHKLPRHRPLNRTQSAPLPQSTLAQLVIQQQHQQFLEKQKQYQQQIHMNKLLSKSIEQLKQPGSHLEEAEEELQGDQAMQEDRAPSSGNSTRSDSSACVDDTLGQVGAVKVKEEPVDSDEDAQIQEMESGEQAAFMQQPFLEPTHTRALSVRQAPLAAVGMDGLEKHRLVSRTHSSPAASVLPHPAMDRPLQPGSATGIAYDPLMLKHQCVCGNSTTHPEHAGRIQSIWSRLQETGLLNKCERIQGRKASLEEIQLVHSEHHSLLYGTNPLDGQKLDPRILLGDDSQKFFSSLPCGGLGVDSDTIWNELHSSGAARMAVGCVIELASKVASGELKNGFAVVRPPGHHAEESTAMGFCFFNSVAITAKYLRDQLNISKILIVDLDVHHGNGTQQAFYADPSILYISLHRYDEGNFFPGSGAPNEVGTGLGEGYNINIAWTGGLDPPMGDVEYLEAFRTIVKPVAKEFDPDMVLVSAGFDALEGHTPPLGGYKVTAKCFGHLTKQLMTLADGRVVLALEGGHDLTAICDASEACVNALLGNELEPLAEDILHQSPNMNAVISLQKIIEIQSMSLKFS
Description: (§1) Then, 0.3 μg of enzyme and 10 μM of substrate per well were added, reacted at 30° C. for 60 minutes. Thereto, Fluor de Lys® Developer II (BML-KI176) was added and reacted for 30 minutes. […] From the data, the respective IC50 were calculated by GraphPad Prism 4.0 program.

HDAC5 = HDAC5 (Homo sapiens, UniProt Q9UQL6); assay: HDAC enzyme activity test, HDAC5; settings: Table 11, eleven HDAC isozymes; read-out: Inhibition ability (IC50) against HDAC5
Chain of HDAC5 (Q9UQL6 whole entry, species assumed): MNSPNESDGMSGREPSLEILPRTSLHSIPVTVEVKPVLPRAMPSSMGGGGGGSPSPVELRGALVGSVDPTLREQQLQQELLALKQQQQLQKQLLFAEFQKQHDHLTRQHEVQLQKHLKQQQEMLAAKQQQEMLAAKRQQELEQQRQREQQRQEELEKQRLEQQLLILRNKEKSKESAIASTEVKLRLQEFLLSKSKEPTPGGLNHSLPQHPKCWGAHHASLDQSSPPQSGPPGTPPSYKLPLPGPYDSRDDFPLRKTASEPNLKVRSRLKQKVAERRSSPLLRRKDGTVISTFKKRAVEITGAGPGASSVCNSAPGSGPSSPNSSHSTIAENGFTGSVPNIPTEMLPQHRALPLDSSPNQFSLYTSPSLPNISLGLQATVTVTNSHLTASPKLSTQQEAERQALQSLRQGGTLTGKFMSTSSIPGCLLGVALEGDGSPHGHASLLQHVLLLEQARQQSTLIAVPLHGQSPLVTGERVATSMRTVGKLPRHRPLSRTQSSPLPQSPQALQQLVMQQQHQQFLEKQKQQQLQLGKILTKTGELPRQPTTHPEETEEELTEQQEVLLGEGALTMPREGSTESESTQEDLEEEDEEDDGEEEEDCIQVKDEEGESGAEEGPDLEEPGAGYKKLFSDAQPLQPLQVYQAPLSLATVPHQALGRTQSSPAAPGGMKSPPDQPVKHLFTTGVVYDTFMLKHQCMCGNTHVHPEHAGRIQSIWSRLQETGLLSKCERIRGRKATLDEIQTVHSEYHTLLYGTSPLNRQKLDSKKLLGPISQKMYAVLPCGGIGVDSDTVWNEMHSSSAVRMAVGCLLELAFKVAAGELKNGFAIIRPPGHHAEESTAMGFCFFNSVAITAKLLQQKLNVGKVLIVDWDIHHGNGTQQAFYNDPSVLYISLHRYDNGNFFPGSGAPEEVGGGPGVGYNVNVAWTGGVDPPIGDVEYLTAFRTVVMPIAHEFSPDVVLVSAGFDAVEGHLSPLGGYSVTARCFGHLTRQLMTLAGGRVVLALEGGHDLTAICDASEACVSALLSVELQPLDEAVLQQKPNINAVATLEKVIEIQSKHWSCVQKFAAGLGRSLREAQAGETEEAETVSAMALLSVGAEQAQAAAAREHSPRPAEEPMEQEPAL
Description: as §1

Human recombinant HDAC1 = molecular target: T1, Human recombinant HDAC1 (Homo sapiens, UniProt Q13547); assay: HDAC enzyme activity test, HDAC1
T1 construct: purchased Enzo Life Science Co. (named for the kit; assigned to the enzyme from the BML- catalogue prefix) BML-SE456
T1 sequence (Q13547 whole entry): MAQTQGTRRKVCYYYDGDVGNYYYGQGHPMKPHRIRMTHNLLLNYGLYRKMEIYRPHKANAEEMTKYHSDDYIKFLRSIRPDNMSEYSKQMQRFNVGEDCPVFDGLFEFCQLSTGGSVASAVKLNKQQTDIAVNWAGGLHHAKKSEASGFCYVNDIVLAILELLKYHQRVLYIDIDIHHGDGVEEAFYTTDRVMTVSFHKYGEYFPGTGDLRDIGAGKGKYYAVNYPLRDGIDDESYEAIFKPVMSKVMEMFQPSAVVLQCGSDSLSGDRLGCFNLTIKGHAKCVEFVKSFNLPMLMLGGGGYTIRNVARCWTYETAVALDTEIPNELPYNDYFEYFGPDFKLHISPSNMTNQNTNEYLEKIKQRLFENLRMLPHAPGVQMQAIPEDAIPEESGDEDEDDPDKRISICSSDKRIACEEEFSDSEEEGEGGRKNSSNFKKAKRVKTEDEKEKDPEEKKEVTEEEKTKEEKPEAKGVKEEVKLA
Description: as §1

HDAC7 = molecular target: T2, HDAC7 (Homo sapiens, UniProt Q8WUI4); assay: HDAC enzyme activity test, HDAC7
T2 sequence (Q8WUI4 1-952): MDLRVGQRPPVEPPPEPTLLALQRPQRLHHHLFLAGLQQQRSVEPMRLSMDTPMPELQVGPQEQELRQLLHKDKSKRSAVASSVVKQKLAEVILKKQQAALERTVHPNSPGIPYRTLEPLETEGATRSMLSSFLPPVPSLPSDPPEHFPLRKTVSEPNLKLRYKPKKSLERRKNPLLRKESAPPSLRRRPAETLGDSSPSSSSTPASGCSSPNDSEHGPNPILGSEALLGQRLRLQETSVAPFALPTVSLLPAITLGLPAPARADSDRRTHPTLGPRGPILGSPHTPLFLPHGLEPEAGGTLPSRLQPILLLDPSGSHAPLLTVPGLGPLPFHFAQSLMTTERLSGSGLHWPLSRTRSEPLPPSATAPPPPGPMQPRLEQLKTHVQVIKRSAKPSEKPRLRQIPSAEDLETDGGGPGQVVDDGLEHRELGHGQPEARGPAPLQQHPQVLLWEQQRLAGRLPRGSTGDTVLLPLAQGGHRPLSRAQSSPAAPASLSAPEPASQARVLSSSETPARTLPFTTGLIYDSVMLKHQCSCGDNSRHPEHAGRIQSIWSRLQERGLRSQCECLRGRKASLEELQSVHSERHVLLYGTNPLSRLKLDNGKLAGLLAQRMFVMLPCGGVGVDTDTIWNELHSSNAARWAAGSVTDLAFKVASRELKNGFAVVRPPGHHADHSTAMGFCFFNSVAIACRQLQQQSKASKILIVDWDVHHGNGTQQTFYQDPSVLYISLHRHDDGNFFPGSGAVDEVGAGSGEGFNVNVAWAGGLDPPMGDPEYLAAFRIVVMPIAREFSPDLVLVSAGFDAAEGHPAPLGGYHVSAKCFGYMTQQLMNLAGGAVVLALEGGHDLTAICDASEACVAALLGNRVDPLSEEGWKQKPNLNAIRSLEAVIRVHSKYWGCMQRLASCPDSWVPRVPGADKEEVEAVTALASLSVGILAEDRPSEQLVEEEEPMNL
Description: as §1

HDAC10 = molecular target: T3, HDAC10 (Homo sapiens, UniProt Q969S8); assay: HDAC enzyme activity test, HDAC10; settings: Table 11, eleven HDAC isozymes; read-out: Inhibition ability (IC50) against HDAC10
T3 sequence (Q969S8 1-669): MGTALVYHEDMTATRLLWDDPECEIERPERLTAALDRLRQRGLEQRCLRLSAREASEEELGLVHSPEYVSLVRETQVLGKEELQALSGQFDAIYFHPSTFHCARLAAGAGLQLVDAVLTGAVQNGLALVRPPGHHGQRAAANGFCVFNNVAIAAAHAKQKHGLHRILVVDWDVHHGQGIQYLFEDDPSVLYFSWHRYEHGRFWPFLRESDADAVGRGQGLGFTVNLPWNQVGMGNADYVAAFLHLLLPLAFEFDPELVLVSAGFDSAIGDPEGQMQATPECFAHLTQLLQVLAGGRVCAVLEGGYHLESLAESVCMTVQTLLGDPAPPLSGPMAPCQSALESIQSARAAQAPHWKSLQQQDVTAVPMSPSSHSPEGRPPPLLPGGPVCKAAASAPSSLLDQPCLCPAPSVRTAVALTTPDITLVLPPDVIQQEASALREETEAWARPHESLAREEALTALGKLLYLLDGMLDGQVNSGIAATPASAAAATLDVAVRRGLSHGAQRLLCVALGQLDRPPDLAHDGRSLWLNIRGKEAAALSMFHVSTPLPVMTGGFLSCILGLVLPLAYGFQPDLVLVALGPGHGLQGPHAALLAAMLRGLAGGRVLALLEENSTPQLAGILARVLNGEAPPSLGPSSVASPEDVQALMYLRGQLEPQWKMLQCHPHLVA
Description: as §1

[1] = Table 11, eleven HDAC isozymes, read-out: Inhibition ability (IC50) against HDAC1
[2] = Table 12, read-out: Inhibition ability (IC50) HDAC1

CN1CCN(C(=O)N(CCCCCCC(=O)NO)c2ccc(-c3ccc4cnn(C)c4c3)cc2)CC1 [CKD-581, reference compound]
IC50 (HDAC9): 0.00042 µM | IC50 (HDAC5): 0.00109 µM | IC50 (Human recombinant HDAC1; [1]): 0.000673 µM | IC50 (HDAC7; Table 11, eleven HDAC isozymes, read-out: Inhibition ability (IC50) against HDAC7): 0.0106 µM | IC50 (HDAC10): 0.00266 µM

O=C(NO)c1ccc(Cn2c3c(c4ccccc42)C(=O)C(CN2CCOCC2)CC3)cc1 (stereo not drawn) [Compound 87, N-hydroxy-4-((3-(morpholinomethyl)-4-oxo-1,2,3,4-tetrahydrocarbazol-9-yl)methyl)benzamide]
IC50 (HDAC9): 1.75 µM | IC50 (HDAC5): 5.08 µM | IC50 (Human recombinant HDAC1; [2]): 3.07 µM | IC50 (Human recombinant HDAC1; data of Table 11, read-out: IC50 against HDAC1): 11.2 µM | IC50 (HDAC7): 3.28 µM | IC50 (HDAC10): 15.3 µM

CN1CCN(CC2CCc3c(c4cc(F)ccc4n3Cc3ccc(C(=O)NO)cc3)C2=O)CC1 (stereo not drawn) [Compound 142, 4-((6-fluoro-3-((4-methylpiperazin-1-yl)methyl)-4-oxo-1,2,3,4-tetrahydrocarbazol-9-yl)methyl)-N-hydroxybenzamide]
IC50 (HDAC9): 1.88 µM | IC50 (HDAC5): 4.27 µM | IC50 (Human recombinant HDAC1; [1]): 12.2 µM | IC50 (Human recombinant HDAC1; [2]): 2.65 µM | IC50 (HDAC7): 4.53 µM | IC50 (HDAC10): 37 µM

CC1(C)CC(=O)c2c(C(F)(F)F)nn(Cc3ccc(C(=O)NO)cc3)c2C1 [Compound 237, 4-((6,6-dimethyl-4-oxo-3-(trifluoromethyl)-4,5,6,7-tetrahydro-1H-indazol-1-yl)methyl)-N-hydroxybenzamide]
IC50 (HDAC9): 16.9 µM | IC50 (HDAC5): 16 µM | IC50 (Human recombinant HDAC1; [2]): 3.91 µM | IC50 (HDAC10): 76.1 µM

O=C(NO)c1ccc(Cn2c3c(c4ccccc42)C(=O)N(CCN2CCOCC2)CC3)cc1 [Compound 249, N-hydroxy-4-((2-(2-morpholinoethyl)-1-oxo-1,2,3,4-tetrahydropyrido[4,3-b]indol-5-yl)methyl)benzamide]
IC50 (HDAC9): 1.03 µM | IC50 (HDAC5): 4.62 µM | IC50 (Human recombinant HDAC1; [1]): 8.47 µM | IC50 (Human recombinant HDAC1; [2]): 3.46 µM | IC50 (HDAC7): 3.42 µM | IC50 (HDAC10): 53 µM
